We go through 20 compounds from patent US8815909B2, “Diaminocyclohexane compounds and uses thereof” (Bristol-Myers Squibb Company, priority 2011, dated 2014).

SMILES strings stand for the structures.

In the first assay the target is T1, human Y4 receptor (Homo sapiens, UniProt P50391).
T1 construct: expressed in transfected cells
T1 sequence (P50391 whole entry): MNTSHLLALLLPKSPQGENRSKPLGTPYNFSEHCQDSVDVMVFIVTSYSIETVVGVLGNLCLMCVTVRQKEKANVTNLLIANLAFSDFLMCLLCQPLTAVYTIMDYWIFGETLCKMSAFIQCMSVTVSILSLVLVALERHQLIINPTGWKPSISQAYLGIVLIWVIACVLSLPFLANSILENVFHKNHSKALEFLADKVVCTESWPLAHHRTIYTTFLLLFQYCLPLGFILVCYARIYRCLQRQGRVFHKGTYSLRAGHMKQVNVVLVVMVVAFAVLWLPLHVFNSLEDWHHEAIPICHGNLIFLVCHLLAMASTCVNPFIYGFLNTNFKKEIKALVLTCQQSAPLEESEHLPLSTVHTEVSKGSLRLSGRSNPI
Briefly: NPY4 cAMP HTRF Agonist Assay (inhibitory cAMP assay, Gi activation by Y4 agonism). Format: cell-based. The note with it: TABLE 2, R2 is Phenyl-CN; read-out: hY4 CAMP EC50. As to the method:
NPY4 cAMP HTRF Agonist Assay
The functionality of the compound at Y4 receptor was analyzed using a inhibitory cAMP assay (CISBIO, HTRF cAMP kit #62AM4PEC) to measure the Gi activation by Y4 agonism.
The human Y4 stable CHO clonal cells were maintained in culture medium (F-12 containing 10% Fetal Bovine Serum, […] GENETICIN®, […] Zeocin). Before the experiment, 5 μL of 1 uM Forskolin (Sigma, # F6886) and 100 uM IBMX (Sigma, # I5879) in PBS buffer were added into 384-well plates (PE, Proxi-plate) that were pre-dotted with 100 nL compounds. The cells were removed from the flasks by Cellstripper, counted and adjusted to 1.0×10^6 cells/mL in PBS buffer, and added 5 μL/well (5000 cells/well) into the above 384-well plates. The cells were then covered and incubated for 30 minutes at room temperature. After incubation, 5 μL/well of D2-conjugate in HTRF lysis buffer was first added, followed by adding 5 μL/well of anti-cAMP Cryptate in HTRF lysis buffer. The plates were incubated for another 1 hour at room temperature and read on the EnVision Multilabel Plate Reader.
Compounds described herein were tested in the above assay.
On the technique in general: Time-resolved FRET reads energy transfer from a long-lived donor to a nearby acceptor.
In general, EC50 refers to the concentration giving half of the maximal effect. Take `COc1ccccc1-c1ccnc(N[C@@H]2CCCC[C@H]2N[C@H]2CCCN(c3ccc(C#N)cc3)C2)c1` [Example 262]: the EC50 stood at 116 nM.
As for `COc1ccc(-c2ccnc(N[C@@H]3CCCC[C@H]3N[C@H]3CCCN(c4ccc(C#N)cc4)C3)c2)cc1` [Example 219], the EC50 came to 45 nM.
Still for that read-out and setting: the value for `N#Cc1ccc(N2C[C@@H]3C[C@H](N[C@@H]4CCCC[C@H]4Nc4cc(-c5cccc(C(N)=O)c5)ccn4)[C@H]2C3)cc1` [Example 231] was 8 nM.

The assay is the same for the next values; noted with them: TABLE 3, R2 is Phenyl-NO2; read-out: hY4 CAMP EC50.
As for `O=[N+]([O-])c1ccc(N2CCC[C@H](N[C@@H]3CCCC[C@H]3NC3=NOC(c4ccccc4)C3)C2)cc1` (some centres unmarked) [Example 286], the concentration for a half-maximal effect (EC50) was 74 nM.

Staying with this assay, now noted: human Y4 receptor, cAMP; read-out: hY4 CAMP EC50.
Take `O=C1OCCN1c1cccc(-c2cnc(N[C@@H]3CCCC[C@H]3N[C@H]3CCCN(c4cnc(C(F)(F)F)nc4)C3)o2)c1` [Example 416]: the EC50 was found to be 49 nM.
As to `C[C@]1(N[C@@H]2CCCC[C@H]2Nc2ncc(-c3cccc(C(N)=O)c3)o2)CCCN(c2cnc(C#N)cn2)C1` [Example 476], the EC50 was 49 nM.
Regarding `COC(=O)Nc1cccc(-c2cnc(N[C@@H]3CCCC[C@H]3N[C@H]3CCCN(c4ccc5ncnn5c4)C3)o2)c1` [Example 483], the EC50 is 4 nM.
As for `CC(C)OC(=O)Nc1cccc(-c2cnc(N[C@@H]3CCCC[C@H]3N[C@H]3CCCN(c4cnc(C(F)(F)F)nc4)C3)o2)c1` [Example 421], the EC50 was determined as 23 nM.
With `Cc1nnc(-c2ccc(N3CCCC(N[C@@H]4CCCC[C@H]4Nc4cc(-c5ccc(F)cc5)ccn4)C3)cc2)o1` (some centres unmarked) [Example 364], the EC50 was 3 nM.
As to `Cc1noc(-c2ccc(N3CCC[C@H](N[C@@H]4CCCC[C@H]4Nc4cc(-c5cccc(C(C)(C)O)c5)ccn4)C3)cc2)n1` [Example 362], the EC50 was 23 nM.
With `COc1ncccc1-c1ccnc(N[C@@H]2CCCC[C@H]2NC2CCCN(c3ccc(-c4nnc(C)o4)cc3)C2)c1` (some centres unmarked) [Example 372], the EC50 stood at 59 nM.

The same assay, now with this note: human Y4 stable CHO clonal cells, forskolin + IBMX; read-out: NPY4 cAMP HTRF Agonist Assay EC50.
Take `FC(F)(F)Oc1ccc(-c2cnc(N[C@@H]3CCCC[C@H]3N[C@H]3CCCN(c4ccc(I)cc4)C3)o2)cc1` [Example 93, (1R,2R)—N1-((S)-1-(4-Iodophenyl)piperidin-3-yl)-N2-(5-(4-(trifluoromethoxy)phenyl)oxazol-2-yl)cyclohexane-1,2-diamine bis-trifluoroacetate]: the EC50 came to 33 nM.
`N#Cc1ccc(N2CCC[C@H](N[C@@H]3CCCC[C@H]3Nc3cc(/C=C\C(N)=O)ccn3)C2)cc1` [Example 110, (Z)-3-(2-(((1R,2R)-2-(((S)-1-(4-cyanophenyl)piperidin-3-yl)amino)cyclohexyl)amino)pyridin-4-yl)acrylamide]: the EC50 is 515 nM.
On the same count and under the same terms, the value for `N#Cc1ccc(N2CCC[C@H](N[C@@H]3CCCC[C@H]3Nc3nc4ccccc4o3)C2)cc1` [Example 55, 4-((S)-3-((1R,2R)-2-(Benzo[d]oxazol-2-ylamino)cyclohexylamino)piperidin-1-yl)benzonitrile] was 463 nM.

Still in this assay, the particulars now being: second TABLE 1, R2 is Phenyl-CF3; read-out: hY4 CAMP EC50.
Regarding `Nc1cccc(-c2cnc(N[C@@H]3CCCC[C@H]3N[C@H]3CCCN(c4ccc(C(F)(F)F)cc4)C3)o2)c1` [Example 172], the EC50 turned out to be 5 nM.
Consider `CC(C)(C)NC(=O)c1cccc(-c2cnc(N[C@@H]3CCCC[C@H]3N[C@H]3CCCN(c4ccc(C(F)(F)F)cc4)C3)o2)c1` [Example 118], for which the EC50 worked out at 38 nM.
The same measure, in the same setting: the value for `N#Cc1cnc(N[C@@H]2CCCC[C@H]2N[C@H]2CCCN(c3ccc(C(F)(F)F)cc3)C2)s1` [Example 193] was 70 nM; that for `NC(=O)c1cccc(-c2ccnc(N[C@@H]3CCCC[C@H]3N[C@H]3C[C@@H]4C[C@H]3N(c3ccc(C(F)(F)F)cc3)C4)c2)c1` [Example 179] was 7 nM.
In the case of `FC(F)(F)c1ccc(N2CCC[C@H](N[C@@H]3CCCC[C@H]3Nc3ncc(-c4ccccc4)cn3)C2)cc1` [Example 176], the EC50 amounted to 579 nM.
Still for that read-out and setting: the value for `CN(C)c1cccc(-c2ccnc(N[C@@H]3CCCC[C@H]3N[C@H]3CCCN(c4ccc(C(F)(F)F)cc4)C3)c2)c1` [Example 159] was 239 nM.
